Reference: patent US20230181678A1, “NOVEL ANTIBACTERIAL PEPTIDE OR PEPTIDE ANALOG AND USE THEREOF” (CAMP THERAPEUTICS INC., priority 2020, published 2023)
* marks the point of attachment. Octanoyl = CCCCCCCC(=O)*

How the values were obtained:
[1] = system: outer membrane of E. coli NDM-1; test: Enzyme assay, outer membrane leakage (β-lactamase release, CENTA); format: cell-based; conditions: peptide 0.63 or 1.30 uM, 37° C., 1 h; 200 μM CENTA
Experimental: (§1) It was observed, through an enzyme assay, whether the sensitizing peptide destroyed the outer and inner membranes of Gram-negative bacteria. In the presence of the sensitizing peptide, it was observed whether in a case where 1.5 mM ONPG was used together therewith, β-galactosidase was released from E. coli ATCC 25922 for the inner membrane, and whether in a case where 200 μM CENTA was used together therewith, β-lactamase was released from E. coli NDM-1 for the outer membrane.
Specifically, to determine leakage of the outer membrane, activity of the β-lactamase released from the outer membrane was evaluated. New Delhi metallo-β-lactamase-1 (NDm-1)-producing E. coli cells were washed three times with DPBS and suspended in the same buffer. The cells were diluted to an OD600 of 0.2 and treated with the peptide at a concentration of 0.63 or 1.30 uM at 37° C. for 1 h. After centrifugation, the supernatant was incubated with 200 μM CENTATM β-lactamase substrate at 37° C. for 1 hour. An optical density was obtained by measuring absorbance of a product of enzyme reaction at 405 nm using a microplate reader (Molecular Devices Co., Menlo Park, Calif.).
The results are illustrated in FIGS. 12A and 12B. The y-axis is absorbance measured at 405 nm, and higher absorbance is observed as a higher amount of β-lactamase is released due to destruction of the membrane.

A. baumannii ATCC 17978 = test: Neutropenic mouse thigh infection model; format: in vivo
Experimental: To induce neutropenia in 6-week-old female ICR (CD-1) mice weighing 23 g to 27 g (Orient Bio, Seongnam, Korea), the mice were treated (subcutaneously injected) with 150 mg/kg and 100 mg/kg of cyclophosphamide (CP), respectively, 5 days and 2 days before thigh infection. A. baumannii ATCC 17978 was harvested, washed, and suspended in sterile saline. The mice were anesthetized and infected with 1×10^5 CFU A. baumannii ATCC 17978 in the right and left thighs. […] The sensitizing peptide CMP1401 was administered by intraperitoneal injection 1, 3, 5, and 7 hours after infection. The mice were euthanized 9 hours after bacterial injection. Both thighs were harvested and suspended in sterile saline. The thighs were homogenized and serially diluted in sterile saline. The homogenized thighs were applied to tryptic soy agar plates, incubated overnight at 37° C., and the number of colonies was counted.

A. baumannii 801 [2] = test: Neutropenic mouse pneumonia model, number of colonies in lungs; format: in vivo
Experimental: To induce neutropenia in 6-week-old female ICR (CD-1) mice weighing 23 g to 27 g (Orient Bio, Seongnam, Korea), the mice were treated (subcutaneously injected) with 150 mg/kg and 100 mg/kg of cyclophosphamide (CP), respectively, 4 days and 1 day before pneumonia infection. For a mouse model for survival analysis, the mice were infected intranasally with 1×10^8 CFU A. baumannii 801; and for a mouse model for colony number counting, the mice were infected intranasally with 1×10^6 CFU A. baumannii 801.
In addition to the survival rate in the neutropenic mouse pneumoniae mouse model, the number of colonies of A. baumannii 801 was measured in the mouse lungs. The mice were euthanized and lungs were harvested in sterile saline. The lungs were homogenized and serially diluted in sterile saline. The homogenized lungs were applied to tryptic soy agar plates, incubated at 37° C. overnight, and the number of colonies was counted. […] Six mice were used per each group.

[3] = system: Acinetobacter baumannii ATCC 17978; test: MIC assay, sensitizing effect of peptide on antibiotics; format: cell-based
Ec NDM-1 = test: MIC assay, sensitizing effect of peptide on rifampicin (CRE); format: cell-based, E. coli; conditions: FIG. 9E; Ec NDM-1 (CRE); peptide 4 ug/ml
Experimental: (§2) All MIC assay experiments were performed using the Clinical and Laboratory Standards Institute (CLSI) guidelines (Clinical & Laboratory Standards Institute: CLSI Guidelines, 2017). Bacterial cells cultured overnight were diluted to 0.05 McFarland standard using McFarland (KIT […] PLUS INSTRUMENT, Biomerieux) in Muller Hinton II Broth (cation-adjusted) (Difco). The cells were inoculated at 1.5×10^5 CFU per 200 μL solution of each well in a 96-well plate. The peptide and the antibiotic were prepared using 2-fold serially diluted concentrations. […] Incubation was performed at 37° C. for 18 hours, and then absorbance was measured at 600 nm using an EPOCH2 microplate reader (BioTek, Winooski, USA) to calculate a MIC value. The MIC value was defined as a concentration of the antibiotic or peptide at which bacterial growth was inhibited to a level of lower than 10% growth of the positive control. Fold reduction was calculated using the following expression.
(§3) ATCC 25922, A.b. ATCC 17978, K.p. ATCC 700603, and P.a. ATCC 27853, or CRE (E.c. NDM-1, K.p. NDM-1, or K.p. KPC) (FIGS. 9 and 10).

K.p. ATCC 700603 = test: MIC assay, sensitizing effect of peptide on rifampicin; format: cell-based, Klebsiella pneumoniae; conditions: FIG. 9C, peptide 4 ug/ml
Experimental: as §2, §3

[4] = system: inner membrane of E. coli ATCC 25922; test: Enzyme assay, inner membrane leakage (β-galactosidase release, ONPG); format: cell-based; conditions: 1.5 mM ONPG
Experimental: as §1
To determine leakage of the inner membrane, release of the cytoplasmic enzyme β-galactosidase was evaluated. The bacteria were diluted to OD600=1 and 1.5 mM ONPG (O-nitrophenyl-β-D-galactopyranoside) was added. Absorbance of a product of enzyme reaction was measured at 420 nm. The other procedures were carried out in the same manner as in the experiment for outer membrane destruction.

P.a. ATCC 27853 = test: MIC assay, sensitizing effect of peptide on rifampicin or colistin; format: cell-based, Pseudomonas aeruginosa; conditions: peptide 4 ug/ml
Experimental: as §2, §3

A. baumannii 801 [5] = test: Immunosuppressed rat pneumonia infection model; format: in vivo; conditions: 5 mg/kg of rifampicin and 3 mg/kg or 6 mg/kg of CMP1401 (intravenous infusion 1 hour) vs 32 mg/kg colistin
Experimental: The results are illustrated in FIG. 16.
32 mg/kg of colistin is known as a clinical dose used for treatment of A. baumannii 801. Therefore, an effect observed in a case where 32 mg/kg of colistin was used alone may be a criterion for comparing effectiveness of co-administration of CMP1401 and an antibacterial agent in this example.

## OctA-KKALKLAKKPLKLLK-NH2 (Octanoyl-KKALKLAKKPLKLLK-NH2) [CMP1401]
[1]
  destruction of outer membrane (β-lactamase release): did not destroy these membranes
A. baumannii ATCC 17978; CMP1401 100 mg/kg in the presence of 20 mg/kg of rifampicin
  decrease in number of colonies compared with rifampicin alone: 14 fold
A. baumannii ATCC 17978; CMP1401 alone at 50 mg/kg
  number of colonies, peptide administered alone: No changes were observed in the number of colonies
A. baumannii ATCC 17978; rifampicin and CMP1401
  therapeutic efficacy of combination therapy with rifampicin: excellent therapeutic efficacy
A. baumannii 801 [2]; 2.5 mg/kg rifampicin + 25 mg/kg CMP1401 vs 2.5 mg/kg rifampicin alone
  number of colonies fewer than rifampicin alone group: about 12 times
A. baumannii 801 [2]; rifampicin and CMP1401 co-administered vs untreated
  number of colonies fewer than untreated group (control): about 60 times
A. baumannii 801 [2]; rifampicin and CMP1401 vs rifampicin and SPR741
  number of colonies fewer than rifampicin and SPR741 group: about 30 times
[3]; FIG. 9B, A.b. ATCC 17978, peptide 4 ug/ml
  Decreased MIC value of rifampicin at peptide concentration of 4 ug/ml: 0.031 µg/mL
[3]; peptide 0.31 μM, vs fusidic acid alone
  sensitizing effect for fusidic acid: 250 times
[3]; peptide 0.31 μM, vs novobiocin alone
  sensitizing effect for novobiocin: 16 times
[3]; peptide 0.31 μM, vs rifampicin alone
  sensitizing effect for rifampicin: 64 times
Ec NDM-1
  Decreased MIC value of rifampicin at peptide concentration of 4 ug/ml: 4 ng/mL
K.p. ATCC 700603
  Decreased MIC value of rifampicin at peptide concentration of 4 ug/ml: 7.8 ng/mL
[4]
  destruction of inner membrane (β-galactosidase release): did not destroy these membranes
P.a. ATCC 27853; FIG. 9D
  Decreased MIC value of rifampicin at peptide concentration of 4 ug/ml: 0.25 µg/mL
P.a. ATCC 27853; FIG. 10B
  Decreased MIC value of colisitin at peptide concentration of 4 ug/ml: 0.016 µg/mL
A. baumannii 801 [5]
  effect of co-administration with rifampicin compared with colistin: comparable to that observed in a case where 32 mg/kg of colistin was administered
